Results reported in patent US20080195322A1, “Quantification of the Effects of Perturbations on Biological Samples” (The Board of Regents of the University of Texas System, priority 2007, published 2008).

Test system: HeLa cells
Test: High-throughput image-based multivariate phenotypic profiling (d-profiles) of the 100-compound compendium by fluorescence microscopy
Assay type: cell-based, human
Conditions: for compound closest to first d-profile / compound closest to second d-profile: compounds with multiple d-profiles
Procedure: To illustrate the performance of the present multivariate approach, the disclosed methods were applied to a compendium of fluorescence microscopy images in which HeLa cells were treated with 100 compounds, dissolved in dimethyl sulfoxide (DMSO), over 13 threefold titrations as shown in FIGS. 5A and 5B. The compounds represented approximately 20 categories of activities as shown in the table of FIG. 6, selected to cover mechanisms of toxicity, signaling pathways, and therapeutic targets in cancer and other diseases. Compound effects were assayed in duplicate on 384-well plates, using four sets of multiplexed molecular markers (DNA-SC35-anillin; DNA-p53-cFos; DNA-p38-pERK; DNA-mirotubule-actin). On average, 2413±852 (mean±standard deviation) cells were captured per well, from 103,580 images per marker set, to yield a total of ˜37 million individual identified cells. Cells treated with DMSO alone were used as controls.
Although most of these features were derived from the measurements of individual markers, some features measured information from more than one marker (such as the spatial correlation between the intensities of two different markers).
Due to biological and experimental variability, the significance thresholds of classification accuracy at p=0.05 estimated on every plate were much higher than 50% (FIGS. 8A-D, lower panels, dashed lines), and occasionally could reach as high as 90%. Therefore, well-to-well variability, even within the control population, could be high and should not be ignored.
To simulate a drug screen for compounds of similar target to a known compound, a d-profile was selected to be the reference profile, while all other d-profiles from the compendium were used as blinded test profiles. Similarity scores between the reference profile and all other test profiles were computed and ranked. The test profiles that were most similar to the reference profile were selected as “drug candidates.”
For each reference profile, the performance in identifying test profiles was estimated with similar a target on each marker set by using prior target annotations as the “gold standard.” […] was used as the performance evaluation criterion (Methods). “On-target” effects were defined as d-profiles whose AUC values were significant (p<0.05), and all other d-profiles were defined as “off-target.” 73%, 40%, 67%, and 56% of the compounds with more than one d-profile and at least one on-target d-profile had at least one off-target d-profile on the DNA-SC35-anillin, DNA-p53-cFos, DNA-p38-pERK and DNA-MT-actin marker sets respectively. […] Thus, the present method can identify dose-dependent secondary or tertiary responses that were very different from the primary responses.
The compound category of a novel d-profile may be inferred by comparison to a collection of previously categorized reference d-profiles. […] Although all of these compounds are histone deacetylase inhibitors, oxamflatin, trichostatin, and scriptaid are hydroxamic acids having very different chemical structures than apicidin, a cyclic tetrapeptide. […] For a d-profile, an accurate prediction was made when its most similar d-profile was annotated to the same target category.

[1] = drug screening simulation against prior target annotations

`CC(=O)O[C@H]1C(=O)[C@@]2(C)[C@H]([C@H](OC(=O)c3ccccc3)[C@]3(O)C[C@H](OC(=O)[C@H](O)[C@@H](NC(=O)c4ccccc4)c4ccccc4)C(C)=C1C3(C)C)[C@]1(OC(C)=O)CO[C@@H]1C[C@@H]2O` [taxol, Taxol] was tested, and the number of d-profiles (across all four marker sets, 13 threefold titrations) was 2, the “compound closest to first d-profile” value (category prediction) was “closest to sulindac sulfide” and the “compound closest to second d-profile” value (category prediction) was “closest to epothilone B and griseofulvin”.

In the case of Oxamflatin, the “most similar d-profiles (category prediction)” value (DNA-p38-pERK marker set) is reported as “most similar to trichostatin, scriptaid, and apicidin”.

`COc1cccc2c1C(=O)c1c(O)c3c(c(O)c1C2=O)C[C@@](O)(C(=O)CO)C[C@@H]3O[C@H]1C[C@H](N)[C@H](O)[C@H](C)O1` [doxorubixin] was tested, and the “number of features needed to detect compound effects after recursive feature removal” value (in each of the four marker sets) was “only a single feature”.

With `COC(=O)Nc1nc2ccc(C(=O)c3cccs3)cc2[nH]1` [nocadazale, Nocodazole] the “d-profile similarity to the group of microtubule stabilizing compounds (taxol second d-profile, epothilone B, griseofulvin)” value (category prediction) was “further away”.

In the case of `NC(=O)NO` [hydroxy urea-2, hydroxy urea], the “most similar d-profiles (category prediction)” value (DNA-p53-cFos marker set) is reported as “most similar to aphidicolin and methotrexate”.

With `CC[C@@]1(O)C(=O)OCc2c1cc1n(c2=O)Cc2cc3ccccc3nc2-1` [Camptothecin] the “compound closest to first d-profile” value (category prediction) was “closest to another topoisomerase inhibitor, etoposide”, the “compound closest to second d-profile” value (category prediction) was “closest to a CDK inhibitor, alsterpullone” and the “off-target effects (d-profiles whose AUC not significant)” value [1] was “one off-target effect”. The “on-target effects (d-profiles whose AUC values were significant, p<0.05)” value [1] was “one on-target effect”.
